Results reported in ChEMBL document CHEMBL5120841, “Discovery of novel pleuromutilin derivatives as potent antibacterial agents” (2022).
Converted amounts (≈) assume the structure as drawn. The source made the active and inactive calls. The calls are words filed in the database; no cut-off is given here.

Assays:
Escherichia coli = assay: Antibacterial activity against Escherichia coli CICC 10389 assessed as bacterial growth inhibition incubated for 18 to 24 hrs by microtiter dilution method; assay type: functional; settings: time 18-24 hrs
Enterococcus faecalis = assay: Antibacterial activity against Enterococcus faecalis assessed as bacterial growth inhibition incubated for 18 to 24 hrs by microtiter dilution method; assay type: functional; settings: time 18-24 hrs
[1] = test system: Staphylococcus epidermidis; assay: Antibacterial activity against methicillin-resistant Staphylococcus epidermidis ATCC 51625 assessed as bacterial growth inhibition incubated for 18 to 24 hrs by microtiter dilution method; assay type: functional; settings: time 18-24 hrs
Staphylococcus aureus [2] = assay: Antibacterial activity against methicillin-resistant Staphylococcus aureus BNCC 337371 assessed as bacterial growth inhibition incubated for 18 to 24 hrs by microtiter dilution method; assay type: functional; settings: time 18-24 hrs
Bacillus subtilis = assay: Antibacterial activity against Bacillus subtilis assessed as bacterial growth inhibition incubated for 18 to 24 hrs by microtiter dilution method; assay type: functional; settings: time 18-24 hrs
Staphylococcus aureus [3] = assay: Antibacterial activity against Staphylococcus aureus ATCC 25923 assessed as bacterial growth inhibition incubated for 18 to 24 hrs by microtiter dilution method; assay type: functional; settings: time 18-24 hrs
Staphylococcus aureus [4] = assay: Antibacterial activity against methicillin-resistant Staphylococcus aureus BNCC 337371 assessed as reduction on bacterial count at 6X MIC incubated for 24 hrs by time killing assay; assay type: functional
Staphylococcus aureus [5] = assay: Antibacterial activity against Staphylococcus aureus ATCC 25923 assessed as reduction on bacterial count at 6X MIC incubated for 24 hrs by time killing assay; assay type: functional
Staphylococcus aureus [6] = assay: Antibacterial activity against methicillin-resistant Staphylococcus aureus BNCC 337371 infected in Kunming mouse lung assessed as reduction on lymphocyte infiltration at 40 mg/kg,ip measured after 7 days by hematoxylin and eosin staining based light microscopic analysis; assay type: functional, organism-based; settings: time 7.0 day
Staphylococcus aureus [7] = assay: Antibacterial activity against methicillin-resistant Staphylococcus aureus BNCC 337371 infected in Kunming mouse lung assessed as reduction on lymphocyte infiltration at 15 mg/kg,ip measured after 7 days by hematoxylin and eosin staining based light microscopic analysis; assay type: functional, organism-based; settings: time 7.0 day
Staphylococcus aureus [8] = assay: Antibacterial activity against methicillin-resistant Staphylococcus aureus BNCC 337371 infected in Kunming mouse lung assessed as reduction on bacterial growth at 40 mg/kg,ip dosed measured after 7 days by 10-fold dilution method; assay type: functional; settings: time 7 day
Staphylococcus aureus [9] = assay: Antibacterial activity against methicillin-resistant Staphylococcus aureus BNCC 337371 infected in Kunming mouse lung assessed as reduction on neutrophil infiltration at 40 mg/kg,ip measured after 7 days by hematoxylin and eosin staining based light microscopic analysis; assay type: functional, organism-based; settings: time 7.0 day
Staphylococcus aureus [10] = assay: Antibacterial activity against methicillin-resistant Staphylococcus aureus BNCC 337371 infected in Kunming mouse lung assessed as reduction on neutrophil infiltration at 15 mg/kg,ip measured after 7 days by hematoxylin and eosin staining based light microscopic analysis; assay type: functional, organism-based; settings: time 7.0 day
Staphylococcus aureus [11] = assay: Antibacterial activity against methicillin-resistant Staphylococcus aureus BNCC 337371 infected in Kunming mouse assessed as reduction on bacterial growth by measuring survival rate at ip dosed measured after 7 days by Bliss method; assay type: functional; settings: BNCC 337371, 168 h, time 7 day
Staphylococcus aureus [12] = assay: Antibacterial activity against methicillin-resistant Staphylococcus aureus BNCC 337371 infected in Kunming mouse lung assessed as reduction on bacterial growth at 15 mg/kg,ip dosed measured after 7 days by 10-fold dilution method; assay type: functional; settings: time 7 day
Staphylococcus aureus [13] = assay: Antibacterial activity against methicillin-resistant Staphylococcus aureus BNCC 337371 infected in Kunming mouse lung assessed as reduction on alveolar diaphragm thickening at 40 mg/kg,ip measured after 7 days by hematoxylin and eosin staining based light microscopic analysis; assay type: functional, organism-based; settings: time 7.0 day
Staphylococcus aureus [14] = assay: Antibacterial activity against methicillin-resistant Staphylococcus aureus BNCC 337371 infected in Kunming mouse lung assessed as reduction on pulmonary fibrosis at 15 mg/kg,ip measured after 7 days by hematoxylin and eosin staining based light microscopic analysis; assay type: functional, organism-based; settings: time 7.0 day
Staphylococcus aureus [15] = assay: Antibacterial activity against methicillin-resistant Staphylococcus aureus BNCC 337371 infected in Kunming mouse lung assessed as reduction on alveolar diaphragm thickening at 15 mg/kg,ip measured after 7 days by hematoxylin and eosin staining based light microscopic analysis; assay type: functional, organism-based; settings: time 7.0 day

## C=C[C@]1(C)C[C@@H](OC(=O)CSc2nc(C)c(C(=O)OC(C)CC)c(C)n2)[C@]2(C)[C@H](C)CC[C@]3(CCC(=O)[C@H]32)[C@@H](C)[C@@H]1O (some centres undefined)
Escherichia coli
  MIC: > 16 µg/mL
Enterococcus faecalis
  MIC: > 16 µg/mL
[1]
  MIC: 0.5 µg/mL (≈ 0.832 µM)
Staphylococcus aureus [2]
  MIC: 0.5 µg/mL (≈ 0.832 µM)
Bacillus subtilis
  MIC: > 16 µg/mL
Staphylococcus aureus [3]
  MIC: 0.5 µg/mL (≈ 0.832 µM)

## C=C[C@]1(C)C[C@@H](OC(=O)CSC2=NC(C)=C(C(=O)OC(C)CC)C(C)N2)[C@]2(C)[C@H](C)CC[C@]3(CCC(=O)[C@H]32)[C@@H](C)[C@@H]1O (some centres undefined)
Escherichia coli
  MIC: > 16 µg/mL
Enterococcus faecalis
  MIC: > 16 µg/mL
[1]
  MIC: 1 µg/mL (≈ 1.66 µM)
Staphylococcus aureus [2]
  MIC: 0.5 µg/mL (≈ 0.829 µM)
Bacillus subtilis
  MIC: > 16 µg/mL
Staphylococcus aureus [3]
  MIC: 0.5 µg/mL (≈ 0.829 µM)

## C=C[C@]1(C)C[C@@H](OC(=O)CSC2=NC(C)=C(C(=O)OCCC)C(C)N2)[C@]2(C)[C@H](C)CC[C@]3(CCC(=O)[C@H]32)[C@@H](C)[C@@H]1O (some centres undefined)
Escherichia coli
  MIC: > 16 µg/mL
Enterococcus faecalis
  MIC: > 16 µg/mL
[1]
  MIC: 0.5 µg/mL (≈ 0.849 µM)
Staphylococcus aureus [2]
  MIC: 0.5 µg/mL (≈ 0.849 µM)
Bacillus subtilis
  MIC: > 16 µg/mL
Staphylococcus aureus [3]
  MIC: 0.25 µg/mL (≈ 0.425 µM)

## C=C[C@]1(C)C[C@@H](OC(=O)CSc2nc(C)c(C(=O)OC)c(CCCC)n2)[C@]2(C)[C@H](C)CC[C@]3(CCC(=O)[C@H]32)[C@@H](C)[C@@H]1O
Escherichia coli
  MIC: > 16 µg/mL
Enterococcus faecalis
  MIC: > 16 µg/mL
[1]
  MIC: 0.5 µg/mL (≈ 0.832 µM)
Staphylococcus aureus [2]
  MIC: 4 µg/mL (≈ 6.66 µM)
Bacillus subtilis
  MIC: > 16 µg/mL
Staphylococcus aureus [3]
  MIC: 2 µg/mL (≈ 3.33 µM)

## C=C[C@]1(C)C[C@@H](OC(=O)CSC2=NC(CC)=C(C(=O)OC)C(C)N2)[C@]2(C)[C@H](C)CC[C@]3(CCC(=O)[C@H]32)[C@@H](C)[C@@H]1O (some centres undefined)
Escherichia coli
  MIC: > 16 µg/mL
Enterococcus faecalis
  MIC: > 16 µg/mL
[1]
  MIC: 0.125 µg/mL (≈ 0.217 µM)
Staphylococcus aureus [2]
  MIC: 0.25 µg/mL (≈ 0.435 µM)
Bacillus subtilis
  MIC: 8 µg/mL (≈ 13.9 µM)
Staphylococcus aureus [3]
  MIC: 0.5 µg/mL (≈ 0.87 µM)

## C=C[C@]1(C)C[C@@H](OC(=O)CS[C@@H]2C[C@H]3CC[C@@H](C2)N3C)[C@]2(C)[C@H](C)CC[C@]3(CCC(=O)[C@H]32)[C@@H](C)[C@@H]1O [RETAPAMULIN]
Escherichia coli
  MIC: > 16 µg/mL
Enterococcus faecalis
  MIC: > 16 µg/mL
[1]
  MIC: 0.125 µg/mL (≈ 0.241 µM)
Staphylococcus aureus [2]
  MIC: 0.125 µg/mL (≈ 0.241 µM)
Bacillus subtilis
  MIC: 8 µg/mL (≈ 15.5 µM)
Staphylococcus aureus [3]
  MIC: 0.25 µg/mL (≈ 0.483 µM)
Staphylococcus aureus [4]
  Activity: 3.3 log10CFU/ml
Staphylococcus aureus [5]
  Activity: 2.25 log10CFU/ml

## C=CCOC(=O)c1c(C)nc(SCC(=O)O[C@@H]2C[C@@](C)(C=C)[C@@H](O)[C@H](C)[C@]34CCC(=O)[C@H]3[C@@]2(C)[C@H](C)CC4)nc1C
Escherichia coli
  MIC: > 16 µg/mL
Enterococcus faecalis
  MIC: > 16 µg/mL
[1]
  MIC: 0.25 µg/mL (≈ 0.428 µM)
Staphylococcus aureus [2]
  MIC: 1 µg/mL (≈ 1.71 µM)
Bacillus subtilis
  MIC: 4 µg/mL (≈ 6.84 µM)
Staphylococcus aureus [3]
  MIC: 0.125 µg/mL (≈ 0.214 µM)

## C=CCOC(=O)C1=C(C)N=C(SCC(=O)O[C@@H]2C[C@@](C)(C=C)[C@@H](O)[C@H](C)[C@]34CCC(=O)[C@H]3[C@@]2(C)[C@H](C)CC4)NC1C (some centres undefined)
Escherichia coli
  MIC: > 16 µg/mL
Enterococcus faecalis
  MIC: > 16 µg/mL
[1]
  MIC: 0.5 µg/mL (≈ 0.852 µM)
Staphylococcus aureus [2]
  MIC: 0.25 µg/mL (≈ 0.426 µM)
Bacillus subtilis
  MIC: > 16 µg/mL
Staphylococcus aureus [3]
  MIC: 0.25 µg/mL (≈ 0.426 µM)

## C=C[C@]1(C)C[C@@H](OC(=O)CSc2nc(C)c(C(=O)OC)c(CC)n2)[C@]2(C)[C@H](C)CC[C@]3(CCC(=O)[C@H]32)[C@@H](C)[C@@H]1O
Escherichia coli
  MIC: > 16 µg/mL
Enterococcus faecalis
  MIC: > 16 µg/mL
[1]
  MIC: 0.0625 µg/mL (≈ 0.109 µM)
Staphylococcus aureus [2]
  MIC: 0.0625 µg/mL (≈ 0.109 µM)
Bacillus subtilis
  MIC: 4 µg/mL (≈ 6.98 µM)
Staphylococcus aureus [3]
  MIC: 0.0313 µg/mL (≈ 0.0546 µM)

## C=C[C@]1(C)C[C@@H](OC(=O)CSc2nc(C)c(C(=O)OC)c(CCC)n2)[C@]2(C)[C@H](C)CC[C@]3(CCC(=O)[C@H]32)[C@@H](C)[C@@H]1O
Escherichia coli
  MIC: > 16 µg/mL
Enterococcus faecalis
  MIC: > 16 µg/mL
[1]
  MIC: 0.0625 µg/mL (≈ 0.107 µM)
Staphylococcus aureus [2]
  MIC: 0.125 µg/mL (≈ 0.213 µM)
Bacillus subtilis
  MIC: 16 µg/mL (≈ 27.3 µM)
Staphylococcus aureus [3]
  MIC: 0.25 µg/mL (≈ 0.426 µM)

## C=C[C@]1(C)C[C@@H](OC(=O)CSCCN(CC)CC)[C@]2(C)[C@H](C)CC[C@]3(CCC(=O)[C@H]32)[C@@H](C)[C@@H]1O.O=C(O)/C=C/C(=O)O [TIAMULIN FUMARATE]
Staphylococcus aureus [6]
  Activity: Active
Escherichia coli
  MIC: > 16 µg/mL
Enterococcus faecalis
  MIC: > 16 µg/mL
[1]
  MIC: 0.5 µg/mL
Staphylococcus aureus [7]
  Activity: Active
Staphylococcus aureus [8]
  Activity: 2.56 log10CFU/ml
Staphylococcus aureus [2]
  MIC: 0.5 µg/mL
Staphylococcus aureus [9]
  Activity: Active
Staphylococcus aureus [10]
  Activity: Active
Staphylococcus aureus [11]
  ED50: 22.9 mg/kg
Bacillus subtilis
  MIC: > 16 µg/mL
Staphylococcus aureus [12]
  Activity: 1.68 log10CFU/ml
Staphylococcus aureus [3]
  MIC: 0.5 µg/mL
Staphylococcus aureus [13]
  Activity: Active
Staphylococcus aureus [14]
  Activity: Active
Staphylococcus aureus [15]
  Activity: Active

## C=C[C@]1(C)C[C@@H](OC(=O)CSC2=NC(C)=C(C(C)=O)C(C)N2)[C@]2(C)[C@H](C)CC[C@]3(CCC(=O)[C@H]32)[C@@H](C)[C@@H]1O (some centres undefined)
Escherichia coli
  MIC: > 16 µg/mL
Enterococcus faecalis
  MIC: > 16 µg/mL
[1]
  MIC: 0.25 µg/mL (≈ 0.459 µM)
Staphylococcus aureus [2]
  MIC: 0.25 µg/mL (≈ 0.459 µM)
Bacillus subtilis
  MIC: > 16 µg/mL
Staphylococcus aureus [3]
  MIC: 0.125 µg/mL (≈ 0.229 µM)
